Key:
[1] = system: Echinochloa oryzoides (Ard.) Fritsch.; test: Preemergence weed control under flooded paddy conditions, ECHORC (Watergrass (Calif.)); assay type: in vivo; conditions: flooded paddy, rated three to four weeks after treatment; for herbicidal effect rating, ECHORC: preemergence weeds; for ECHORC herbicidal effect rating: preemergence; as to herbicidal effect rating, ECHORC: meaning of each grade not given here
[2] = system: Cyperus iria; test: Preemergence weed control under flooded paddy conditions, CYPIR (Rice Flatsedge); assay type: in vivo; conditions: flooded paddy, rated three to four weeks after treatment; for herbicidal effect rating, CYPIR: preemergence weeds; for CYPIR herbicidal effect rating: preemergence; as to herbicidal effect rating, CYPIR: meaning of each grade not given here
[3] = system: Monochoria vaginalis, Presl.; test: Preemergence weed control under flooded paddy conditions, MOOVA (Monochoria); assay type: in vivo; conditions: flooded paddy, rated three to four weeks after treatment; for herbicidal effect rating, MOOVA: preemergence weeds; for MOOVA herbicidal effect rating: preemergence; as to herbicidal effect rating, MOOVA: meaning of each grade not given here
[4] = system: Sagittaria pygmaea, L.; test: Preemergence weed control under flooded paddy conditions, SAGPY (Arrowhead (Pygmaea)); assay type: in vivo; conditions: flooded paddy, rated three to four weeks after treatment; for herbicidal effect rating, SAGPY: preemergence weeds; for SAGPY herbicidal effect rating: preemergence; as to herbicidal effect rating, SAGPY: meaning of each grade not given here
[5] = system: Oryza sativa, (L.) Tebonnet; test: Rice tolerance to post-transplant applications under flooded paddy conditions (Example 187), ORYSAT (Rice, Tebonnet); conditions: rated three to four weeks after treatment

Row | SMILES | herbicidal effect rating, ECHORC ([1]; Rate 0.0320 kg/ha) | herbicidal effect rating, ECHORC ([1]; Rate 0.0620 kg/ha) | herbicidal effect rating, ECHORC ([1]; Rate 0.1250 kg/ha) | herbicidal effect rating, ECHORC ([1]; Rate 0.2500 kg/ha) | herbicidal effect rating, CYPIR ([2]; Rate 0.0320 kg/ha) | herbicidal effect rating, CYPIR ([2]; Rate 0.0620 kg/ha) | herbicidal effect rating, CYPIR ([2]; Rate 0.1250 kg/ha) | herbicidal effect rating, CYPIR ([2]; Rate 0.2500 kg/ha) | herbicidal effect rating, MOOVA ([3]; Rate 0.0320 kg/ha) | herbicidal effect rating, MOOVA ([3]; Rate 0.0620 kg/ha) | herbicidal effect rating, MOOVA ([3]; Rate 0.1250 kg/ha) | herbicidal effect rating, MOOVA ([3]; Rate 0.2500 kg/ha) | herbicidal effect rating, SAGPY ([4]; Rate 0.0320 kg/ha) | herbicidal effect rating, SAGPY ([4]; Rate 0.0620 kg/ha) | herbicidal effect rating, SAGPY ([4]; Rate 0.1250 kg/ha) | herbicidal effect rating, SAGPY ([4]; Rate 0.2500 kg/ha) | herbicidal effect rating ORYSAT ([5]; Rate 0.0320 kg/ha) | herbicidal effect rating ORYSAT ([5]; Rate 0.0620 kg/ha) | herbicidal effect rating ORYSAT ([5]; Rate 0.1250 kg/ha) | herbicidal effect rating ORYSAT ([5]; Rate 0.2500 kg/ha) | also measured
1 | CNC.Cn1c(C(F)(F)F)cc(=O)n(-c2ccc3snc(CSCC(=O)O)c3c2)c1=O [Example 299, Acetic acid, {{{5-[3,6-dihydro-3-methyl-2,6-dioxo-4-(trifluoromethyl)-1(2H)-pyrimidinyl)-1,2-benzisothiazol-3-yl}methyl}thio}-, dimethylamine salt] | 0.0 | 0.0 | 2.0 | 5.0 | 3.0 | 7.0 | 9.0 | 9.0 | 7.0 | 9.0 | 9.0 | 9.0 | 0.0 | 0.0 | 3.0 | 7.0 | 0.0 | 0.0 | 3.0 | 5.0 | –
2 | CNC.Cn1c(C(F)(F)F)cc(=O)n(-c2ccc3snc(COCC(=O)O)c3c2)c1=O [Example 296, Acetic acid, {{5-[3,6-dihydro-3-methyl-2,6-dioxo-4-(trifluoromethyl)-1(2H)-pyrimidinyl]-1,2-benzisothiazol-3-yl}methoxy}-, dimethylamine salt] | – | – | – | – | – | – | – | – | – | – | – | – | – | – | – | – | – | – | – | – | ECHORC herbicidal effect rating ([1]; Rate 0.0320 kg/ha): 0.0; ECHORC herbicidal effect rating ([1]; Rate 0.0620 kg/ha): 0.0; ECHORC herbicidal effect rating ([1]; Rate 0.1250 kg/ha): 2.0; ECHORC herbicidal effect rating ([1]; Rate 0.2500 kg/ha): 4.0; CYPIR herbicidal effect rating ([2]; Rate 0.0320 kg/ha): 6.0; CYPIR herbicidal effect rating ([2]; Rate 0.0620 kg/ha): 7.0; CYPIR herbicidal effect rating ([2]; Rate 0.1250 kg/ha): 7.0; CYPIR herbicidal effect rating ([2]; Rate 0.2500 kg/ha): 7.0; MOOVA herbicidal effect rating ([3]; Rate 0.0320 kg/ha): 9.0; MOOVA herbicidal effect rating ([3]; Rate 0.0620 kg/ha): 9.0; MOOVA herbicidal effect rating ([3]; Rate 0.1250 kg/ha): 9.0; MOOVA herbicidal effect rating ([3]; Rate 0.2500 kg/ha): 9.0; SAGPY herbicidal effect rating ([4]; Rate 0.0320 kg/ha): 0.0; SAGPY herbicidal effect rating ([4]; Rate 0.0620 kg/ha): 0.0; SAGPY herbicidal effect rating ([4]; Rate 0.1250 kg/ha): 5.0; SAGPY herbicidal effect rating ([4]; Rate 0.2500 kg/ha): 7.0; ORYSAT herbicidal effect rating ([5]; Rate 0.0320 kg/ha): 0.0; ORYSAT herbicidal effect rating ([5]; Rate 0.0620 kg/ha): 0.0; ORYSAT herbicidal effect rating ([5]; Rate 0.1250 kg/ha): 0.0; ORYSAT herbicidal effect rating ([5]; Rate 0.2500 kg/ha): 2.0
3 | Cn1c(C(F)(F)F)cc(=O)n(-c2ccc3snc(C(Cl)Br)c3c2)c1=O (centres unmarked) [Example 300, 2,4(1H,3H)-Pyrimidinedione, 3-[3-(bromochloromethyl)-1,2-benzisothiazol-5-yl]-1-methyl-6-(trifluoromethyl)-] | 3.0 | 6.0 | 7.0 | 9.0 | 3.0 | 6.0 | 9.0 | 9.0 | 9.0 | 9.0 | 9.0 | 9.0 | 2.0 | 5.0 | 6.0 | 7.0 | 2.0 | 4.0 | 4.0 | 5.0 | –
4 | COC(=O)COCc1nsc2ccc(-n3c(=O)cc(C(F)(F)F)n(C)c3=O)cc12 [Example 292, Acetic acid, {{5-[3,6-dihydro-3-methyl-2,6-dioxo-4-(trifluoromethyl)-1(2H)-pyrimidinyl]-1,2-benzisothiazol-3-yl}methoxy}-, methyl ester] | – | – | – | – | – | – | – | – | – | – | – | – | – | – | – | – | – | – | – | – | ECHORC herbicidal effect rating ([1]; Rate 0.0320 kg/ha): 0.0; ECHORC herbicidal effect rating ([1]; Rate 0.0620 kg/ha): 0.0; ECHORC herbicidal effect rating ([1]; Rate 0.1250 kg/ha): 0.0; ECHORC herbicidal effect rating ([1]; Rate 0.2500 kg/ha): 0.0; CYPIR herbicidal effect rating ([2]; Rate 0.0320 kg/ha): 9.0; CYPIR herbicidal effect rating ([2]; Rate 0.0620 kg/ha): 9.0; CYPIR herbicidal effect rating ([2]; Rate 0.1250 kg/ha): 9.0; CYPIR herbicidal effect rating ([2]; Rate 0.2500 kg/ha): 9.0; MOOVA herbicidal effect rating ([3]; Rate 0.0320 kg/ha): 9.0; MOOVA herbicidal effect rating ([3]; Rate 0.0620 kg/ha): 9.0; MOOVA herbicidal effect rating ([3]; Rate 0.1250 kg/ha): 9.0; MOOVA herbicidal effect rating ([3]; Rate 0.2500 kg/ha): 9.0; SAGPY herbicidal effect rating ([4]; Rate 0.0320 kg/ha): 0.0; SAGPY herbicidal effect rating ([4]; Rate 0.0620 kg/ha): 0.0; SAGPY herbicidal effect rating ([4]; Rate 0.1250 kg/ha): 0.0; SAGPY herbicidal effect rating ([4]; Rate 0.2500 kg/ha): 5.0; ORYSAT herbicidal effect rating ([5]; Rate 0.0320 kg/ha): 0.0; ORYSAT herbicidal effect rating ([5]; Rate 0.0620 kg/ha): 0.0; ORYSAT herbicidal effect rating ([5]; Rate 0.1250 kg/ha): 0.0; ORYSAT herbicidal effect rating ([5]; Rate 0.2500 kg/ha): 0.0

— patent publication EP0908457B1, “3-(1,2-benzisothiazol- and isoxazol-5-Y1)-2,4(1H,3H)-pyrimidinedione or thione and 3-(1,2-benzisothiazol- and isoxazol-5-y1)-4(3H)-pyrimidinone or thione herbicidal agents” (BASF AKTIENGESELLSCHAFT, priority 1997, dated 1999)
